Where two headings read alike, the source gives them in different places. Marks after values point to notes of the source that are not given here.
Tests used:
HeLa cells = assay: Mitotic arrest and antiproliferation in HeLa cells (DAPI staining, cell counts); format: cell-based; details: for induction of mitotic arrest (rounded cells with apoptotic or aberrant chromosome morphologies): 100 μM; for population of rounded cells with mitotically arrested or apoptotic chromosome morphologies: 25 μM, 12 h
Protocol: HeLa cells were cultured as recommended by the American Type Culture Collection (ATCC). […] Immunostaining was carried out using anti-Plk1 (Santa Cruz Biotechnology, Santa Cruz, CA), anti-Cep63 (MilliporeSigma), anti-CREST (Antibodies Incorp, Davis, CA), and anti-α-tubulin (Sigma, St. Louis, MO) antibodies.
(§1) To quantify fluorescence signal intensities, images were acquired under the same settings and the images obtained after the maximum-intensity projection of z-stacks were analyzed using the Zeiss ZEN v2.1 software (Carl Zeiss Microscopy, LLC). All the quantifications were performed with randomly chosen fields from at least three independent experiments. All values are given as mean±s. D. P values were calculated by unpaired t test from the mean data of each group in Graph Pad Prism (***P<0.001). The statistical details including the definitions and value of n (e.g., number of experimental replicates, cells, etc.) And standard deviations are provided herein.

[1] = Stability in human liver microsomes; format: in vitro ADME; details: for half-life: read-out: t1/2 Human LM
[2] = Stability in mouse liver microsomes; format: in vitro ADME; details: for half-life: read-out: t1/2 Mouse LM
[3] = Stability in rat liver microsomes (Table 10); format: in vitro ADME; details: for half-life: read-out: t1/2 Rat LM
[4] = Stability in human cytosol; format: in vitro ADME; details: for half-life: read-out: t1/2 Human cytosol
[5] = Stability in mouse cytosol; format: in vitro ADME; details: for half-life: read-out: t1/2 Mouse cytosol
Stability in rat cytosol = format: in vitro ADME; details: for half-life: read-out: t1/2 Rat cytosol
[6] = test system: multiple myeloma-derived L363 cells; assay: MTS cell proliferation assay in L363 cells; format: cell-based; details: for GI50: read-out: Cell efficacy, GI50 ± sd
Protocol: MTS Assay. […] 96™ AQueous One Solution Cell Proliferation Assay (MTS) kit (Promega, WI). Briefly, asynchronously growing L363 cells cultured in a 96-well plate were treated with the indicated compounds for 48 h.

[7] = Microsomal metabolic stability, rat liver microsomes (RLM)
full-length human Plk1 = full-length human Plk1 (Homo sapiens (Human), UniProt P53350); assay: ELISA-based Plk1 PBD-binding inhibition assay; details: Plk1 PBD; n = 3 unless noted
Sequence of full-length human Plk1 (P53350 whole entry): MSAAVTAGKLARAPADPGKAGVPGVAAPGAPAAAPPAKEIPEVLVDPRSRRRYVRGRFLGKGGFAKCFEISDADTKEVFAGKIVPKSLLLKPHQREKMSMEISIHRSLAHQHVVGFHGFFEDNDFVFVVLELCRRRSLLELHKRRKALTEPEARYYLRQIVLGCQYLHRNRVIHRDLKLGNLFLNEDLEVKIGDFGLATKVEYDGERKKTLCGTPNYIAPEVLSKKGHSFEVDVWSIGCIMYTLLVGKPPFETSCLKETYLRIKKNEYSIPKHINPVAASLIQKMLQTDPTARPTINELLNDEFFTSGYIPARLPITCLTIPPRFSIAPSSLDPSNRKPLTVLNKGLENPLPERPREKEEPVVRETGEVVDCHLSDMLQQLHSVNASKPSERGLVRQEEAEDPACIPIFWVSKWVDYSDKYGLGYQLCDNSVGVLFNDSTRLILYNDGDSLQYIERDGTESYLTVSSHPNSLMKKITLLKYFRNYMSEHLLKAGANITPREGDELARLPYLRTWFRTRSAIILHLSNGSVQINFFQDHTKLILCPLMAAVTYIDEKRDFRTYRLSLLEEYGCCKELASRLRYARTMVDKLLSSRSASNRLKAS
Protocol: An ELISA-based PBD-binding inhibition assay was performed essentially as described previously. […] The wells were washed once with PBS+0.05% Tween20 (PBST) and incubated with 200 μl of PBS plus 1% BSA (blocking buffer) for 1 h to prevent non-specific binding. HEK293A lysates expressing HA-EGFP-Plk1 were prepared in a TBSN [20 mM Tris-HCl (pH 8.0), 150 mM NaCl, 0.5% NP-40, 5 mM EGTA, 2 mM MgCl2, 1.5 mM EDTA, and protease inhibitor cocktail (Roche)]+20% DMSO buffer (˜20 μg total lysates in 100 μl buffer), mixed with the indicated amount of the competitors (p-T78 peptide and its derivative compounds) for 30 min, provided onto the biotinylated peptide-coated ELISA wells, and then incubated with constant rocking for 1 h at 25° C. Following the incubation, ELISA plates were washed 5 times with PBST. To detect bound HA-EGFP-Plk1, the plates were probed for 2 h with 100 μl/well of anti-HA antibody at a concentration of 0.5 μg/ml in the blocking buffer and then washed 5 times. The plates were further probed for 1 h with 100 μl/well of HRP-conjugated secondary antibody (GE Healthcare) at a 1:1,000 dilution in the blocking buffer. The plates were washed 5 times with PBST and incubated with 100 μl/well of 3,3′,5,5′-tetramethylbenzidine solution (Sigma-Aldrich, St. Louis, MO) as substrate until a desired absorbance was reached. The reactions were stopped by the addition of 100 μl/well of stop solution (Cell Signaling Technology, Danvers, MA). The optical density (O.D.) was measured at 450 nm by using a Perkin-Elmer Enspire Multimode Plate reader (PerkinElmer, Inc., Boston, MA). Data obtained from more than three independent experiments were analyzed by GraphPad (San Diego, CA) Prism software version 7.
ELISA-based PBD-binding Inhibition Assay. […] The reaction products were measured at 450 nm by using a Perkin-Elmer Enspire Multimode Plate reader (PerkinElmer, Inc., Boston, MA). Data obtained from more than three independent experiments were analyzed by GraphPad (San Diego, CA) Prism software version 7.

[8] = test system: Plk1 localization to centrosomes and kinetochores in HeLa cells; assay: Immunostaining of Plk1 localization and spindle morphology in HeLa cells; format: cell-based; details: 25 μM, 2 h
Protocol: HeLa cells were cultured as recommended by the American Type Culture Collection (ATCC). Asynchronously growing cells were treated with control DMSO or the indicated concentration of 143. To reveal chromosome morphologies, cells were treated with 4′,6-diamidino-2-phenylindole (DAPI), fixed, and subjected to confocal microscopy. Immunostaining was carried out using anti-Plk1 (Santa Cruz Biotechnology, Santa Cruz, CA), anti-Cep63 (MilliporeSigma), anti-CREST (Antibodies Incorp, Davis, CA), and anti-α-tubulin (Sigma, St. Louis, MO) antibodies. Confocal images were acquired using a Zeiss LSM780 equipped with a plan-apochromat 63× (N.A. 1.4) oil-immersion objective lens, 34-channel GaAsP spectral detector (Carl Zeiss Microscopy, LLC.), and 8-bit, 0.5-μm z-steps.
as §1
To directly examine whether the observed mitotic arrest was the consequence of inhibiting Plk1 PBD function, immunostaining analysis was carried out to determine the ability of intracellular Plk1 to localize to centrosomes and kinetochores, an event that requires PBD-mediated protein-protein interaction (Lee et al., Trends Pharmacol. Sci. 36, 858-877 (2015); and Elia et al., Cell 115, 83-95 (2003)). […] A short treatment time (i.e., 2 h), which was intended to minimize a potential indirect effect of these inhibitors, was sufficient to delocalize greater than 70% of Plk1 signals from centrosomes (marked by anti-Cep63 signals) and 90% of those from kinetochores (marked by anti-CREST signals).

[9] = Homo sapiens, L-363, 48 h treatment

Structure (SMILES): CCCn1c(=O)c2cc(F)ccc2n2c(SC)nnc12 [compound 144, 7-fluoro-1-(methylthio)-4-propyl-[1,2,4]triazolo[4,3-a]quinazolin-5(4H)-one]
- induction of mitotic arrest (rounded cells with apoptotic or aberrant chromosome morphologies) (HeLa cells): induced mitotic arrest but at a somewhat reduced level
- half-life [1]: 0.241 h
- half-life [2]: 0.176 h
- half-life [3]: 0.439 h
- half-life [4]: > 2 h
- half-life [5]: > 2 h
- half-life (Stability in rat cytosol): > 2 h

Structure (SMILES): O=c1c2cc(F)ccc2n2c(=S)[nH]nc2n1CCc1ccc(Cl)cc1 [Example 43, 4-(4-chlorophenethyl)-7-fluoro-1-thioxo-2,4-dihydro-[1,2,4]triazolo[4,3-a]quinazolin-5(1H)-one]
- population of rounded cells with mitotically arrested or apoptotic chromosome morphologies (HeLa cells): failed to show any of these phenotypes
- Cell efficacy, GI50 ± sd (μM) ([6]; 48 h treatment): failed to induce any a detectable level of cellular response

Structure (SMILES): NCCCn1c(=O)c2cc(F)ccc2n2c(=S)[nH]nc12 [compound 68]
- t1/2 Human LM [1]: >2 h
- t1/2 Mouse LM [2]: >2 h
- t1/2 Rat LM [3]: 1.7728 h
- t1/2 Human cytosol [4]: >2 h
- t1/2 Mouse cytosol [5]: >2 h
- t1/2 Rat cytosol (Stability in rat cytosol): >2 h
- Solub. (Aqueous solubility; Free base): 27 µg/mL
- Solub. (Aqueous solubility; TFA salt): > 43 µg/mL
- t1/2 (min, RLM) ([7]; Free base): >30^c >30^d min
- t1/2 (min, RLM) ([7]; TFA salt): >30^c >30^d min

Structure (SMILES): CCCn1c(=O)c2cc(F)ccc2n2c(=S)[nH]nc12 [compound 64, 7-fluoro-4-propyl-1-thioxo-2,4-dihydro-[1,2,4]triazolo[4,3-a]quinazolin-5(1H)-one]
- induction of mitotic arrest (rounded cells with apoptotic or aberrant chromosome morphologies) (HeLa cells): lacked a detectable level of cellular response
- half-life [1]: > 2 h
- half-life [2]: > 2 h
- half-life [3]: 2 h
- half-life [4]: > 2 h
- half-life [5]: > 2 h
- half-life (Stability in rat cytosol): > 2 h
- PAMPA (PAMPA permeability): 195 ×10⁻⁶ cm/s
- Solub. (Aqueous solubility; aqueous solubility): >28 µg/mL
- t1/2 (min, RLM) ([7]; rat liver microsomes): >30 min

Structure (SMILES): CCCn1c(=O)c2cccc(F)c2n2c(=S)[nH]nc12 [compound 139, 9-fluoro-4-propyl-1-thioxo-2,4-dihydro-[1,2,4]triazolo[4,3-a]quinazolin-5(1H)-one]
- induction of mitotic arrest (rounded cells with apoptotic or aberrant chromosome morphologies) (HeLa cells): lacked a detectable level of cellular response

Structure (SMILES): CC(=O)Nc1ccc2c(c1)c(=O)n(CCc1ccccc1)c1n[nH]c(=S)n21 [Example 14, N-(5-oxo-4-phenethyl-1-thioxo-1,2,4,5-tetrahydro-[1,2,4]triazolo[4,3-a]quinazolin-7-yl)acetamide]
- population of rounded cells with mitotically arrested or apoptotic chromosome morphologies (HeLa cells): failed to show any of these phenotypes
- Cell efficacy, GI50 ± sd (μM) ([6]; 48 h treatment): failed to induce any a detectable level of cellular response

Structure (SMILES): C[C@H]1C[C@@H]1n1c(=O)c2cc(F)ccc2n2c(=S)[nH]nc12 [compound 80]
- t1/2 Human LM [1]: 0.8472 h
- t1/2 Mouse LM [2]: 1.7515 h
- t1/2 Rat LM [3]: >2 h
- t1/2 Human cytosol [4]: >2 h
- t1/2 Mouse cytosol [5]: >2 h
- t1/2 Rat cytosol (Stability in rat cytosol): >2 h
- PAMPA: 188 ×10⁻⁶ cm/s
- Solub. (Aqueous solubility; aqueous solubility): 13.2 µg/mL
- t1/2 (min, RLM) ([7]; rat liver microsomes): >30 min

Structure (SMILES): O=c1c2cc(F)ccc2n2c(=S)[nH]nc2n1CCc1ccncc1 [compound 85]
- population of rounded cells with mitotically arrested or apoptotic chromosome morphologies (HeLa cells): induced Plk1 delocalization and mitotic arrest at a level similar to those of compound 75
- GI50 ([6]; 48 h treatment): 3.11 µM
- Solub. (Aqueous solubility; aqueous solubility): 10.9 µg/mL
- t1/2 (min, RLM) ([7]; rat liver microsomes): >30 min

Structure (SMILES): CCCn1c(=O)c2ccccc2n2c(=S)[nH]nc12 [compound 21, 4-propyl-1-thioxo-2,4-dihydro-[1,2,4]triazolo[4,3-a]quinazolin-5(1H)-one]
- IC50 (full-length human Plk1): 1.03 ± 0.08 µM
- induction of mitotic arrest (rounded cells with apoptotic or aberrant chromosome morphologies) (HeLa cells): lacked a detectable level of cellular response
- half-life [1]: > 2 h
- half-life [2]: > 2 h
- half-life [3]: > 2 h
- half-life [4]: > 2 h
- half-life [5]: > 2 h
- half-life (Stability in rat cytosol): > 2 h
- Solub. (Aqueous solubility; aqueous solubility): 21.3 µg/mL
- half-life ([7]; rat liver microsomes): > 0.5 h

Structure (SMILES): CCCn1c(=O)c2cccc(F)c2n2c(Sc3c([N+](=O)[O-])ncn3C)nnc12 [73 (NCK167), 9-fluoro-1-((1-methyl-4-nitro-1H-imidazol-5-yl)thio)-4-propyl-[1,2,4]triazolo[4,3-a]quinazolin-5(4H)-one]
- GI50 [6, 9]: 14 ± 0.39 µM

Structure (SMILES): CCCn1c(=O)c2sc(C)cc2n2c(Sc3c(S(N)(=O)=O)ncn3C)nnc12 [77 (NCK175), 1-methyl-5-((7-methyl-5-oxo-4-propyl-4,5-dihydrothieno[2,3-e][1,2,4]triazolo[4,3-a]pyrimidin-1-yl)thio)-1H-imidazole-4-sulfonamide]
- GI50 [6, 9]: > 400 µM

Structure (SMILES): CS(=O)(=O)NCCn1c(=O)c2cc(F)ccc2n2c(=S)[nH]nc12 [compound 75]
- population of rounded cells with mitotically arrested or apoptotic chromosome morphologies (HeLa cells): approximately 60%
- Plk1 signals delocalized from centrosomes [8]: greater than 70%
- Plk1 signals delocalized from kinetochores [8]: > 90%
- effect on Plk1 localization [8]: greatly diminished Plk1 signal intensities at both centrosomes and kinetochores
- GI50 ([6]; 48 h treatment): 4.1 µM
- Solub. (Aqueous solubility; aqueous solubility): >53 µg/mL
- t1/2 (min, RLM) ([7]; rat liver microsomes): >30 min

Reference: patent US20230365568A1, “PLK1 POLO BOX DOMAIN INHIBITORS AND METHOD OF TREATING CANCER” (The United States of America,as represented by the …, priority 2020, published 2023)
